Measurements reported in patent US20100247629A1, “Method for drug loading in liposomes” (Yissum Research Development Company of the Hebrew …, priority 2003, published 2010).

Tests used:
M109-R [1] = experiment: In vitro cytotoxicity (growth inhibition, methylene blue); assay type: cell-based, mouse; conditions: M109-R (doxorubicin-resistant); continuous exposure 72 hours
Method: (§1) M109-R and KB-V cell lines are doxorubicin-resistant sublines of M109-S and KB, respectively. The cells were exposed continuously to the drug formulation for 72 hours following the experimental details described by Horowitz, et al., Biochimica et Biophysica Acta, 1109:203-209 (1992) and also in Example 2.
(§2) Cells for each line were exposed continuously to drug for 72 hours. Other experimental details were as described by Horowitz et al., Biochem Biophys Acta, 1109(2):203 (1992). Briefly, 5×10^3 cells from exponentially growing cultures in 200 μL aliquots were plated onto 96-well flat-bottom microtiter plates. […] For each 10-fold increase in drug concentration, six drug concentration points were tested. Each test was performed in triplicate wells and in two parallel plates. The cells were treated continuously for 72 hours. The cultures were fixed by the addition of 50 μL 2.5% glutaraldehyde to each well for 10 minutes. The plates were washed three times with de-ionized water, once with 0.1 M borate buffer (pH 8.5) and then stained for 60 minutes with 100 μL methylene blue (1% in 0.1 M buffer borate, pH 8.5) at room temperature. […] The dye was extracted with 200 μL 0.1 M HCl for 60 min at 37° C. and the optical density was determined using a microplate spectrophotometer.
(§3) The growth rate was calculated by dividing the doubling times of drug-treated cells with those of the control cells.

M109-S = experiment: as above; assay type: cell-based, mouse; conditions: continuous exposure 72 hours
Method: as §1, §2, §3

C26 = experiment: as above; assay type: cell-based, human; conditions: continuous exposure 72 hours
Method: as §1
(§4) Cells for each line were exposed continuously to drug for 72 hours. Other experimental details were as described by Horowitz et al., Biochem Biophys Acta, 1109(2):203 (1992). Briefly, 5×10^3 cells from exponentially growing cultures in 200 μL aliquots were plated onto 96-well flat-bottom microtiter plates. […] For each 10-fold increase in drug concentration, six drug concentration points were tested. Each test was performed in triplicate wells and in two parallel plates. The cells were treated continuously for 72 hours. The cultures were fixed by the addition of 50 μL 2.5% glutaraldehyde to each well for 10 minutes. The plates were washed three times with de-ionized water, once with 0.1 M borate buffer (pH 8.5) and then stained for 60 minutes with 100 μL methylene blue (1% in 0.1 M buffer borate, pH 8.5) at room temperature. The plates were rinsed in five baths of de-ionized water to remove non-cell bound dye and were then dried. The dye was extracted with 200 μL 0.1 M HCl for 60 min at 37° C. and the optical density was determined using a microplate spectrophotometer.
as §3

KB-V [2] = experiment: as above; assay type: cell-based, human; conditions: KB-V (doxorubicin-resistant); continuous exposure 72 hours
Method: as §1, §4, §3

KB [3] = experiment: as above; assay type: cell-based, human; conditions: continuous exposure 72 hours
Method: as §1, §4, §3

KB-V [4] = experiment: In vitro uptake of doxorubicin into tumor cells; assay type: cell-based, human
Method: (§5) There is a greater drug accumulation in cells treated with lipo-dox-AG than in those treated with lipo-dox-AS.
(§6) Cellular accumulation of doxorubicin was assayed by a method similar to that described in Chambers, S. K. et al., Cancer Res., 49:6275-6279 (1989). […] At the end of the incubation, the cells were rinsed three times with PBS and the drug was extracted from the cells with 1 mL acidified isopropanol (0.075 M HCl in 90% isopropanol), for 20 hours at 4° C. Doxorubicin concentration was determined spectrofluorometrically using an excitation wavelength of 470 nm and an emission wavelength of 590 nm. The fluorescence intensity emitted was translated into doxorubicin-equivalents based on a doxorubicin standard curve, after readings of untreated background cells were subtracted.

KB [5] = experiment: In vitro uptake of doxorubicin into tumor cells; assay type: cell-based, human
Method: as §5, §6

M109-R [6] = experiment: In vitro uptake of doxorubicin into tumor cells; assay type: cell-based, mouse; conditions: 24 exposure
Method: as §5, §6

C-26 cells = experiment: In vivo therapeutic activity, C-26 tumor survival; parameters: species or system mice; conditions: C-26 tumor i.p., 10 mg/kg i.v. five days after inoculation
Description: Untreated (control) mice died quickly with a median survival of 13 days (not shown).
In another study, mice were inoculated i.p. with C-26 cells (10^6 cells).

[7] = Solubility and precipitation of doxorubicin in ammonium salt solutions; assay type: physicochemical
Method: The higher release rate is a result of using glucuronate as the balancing anion. […] In addition, doxorubicin precipitates at less than 2 mM concentration in the presence of sulfate ions, while a much higher concentration of doxorubicin is required for precipitation to occur in the presence of glucuronate ions. Accordingly, when glucuronate is the balancing anion, more of the therapeutic agent is in a soluble form and therefore it is more available for release from the liposomes. Further, the permeability of glucuronate through the liposomal membranes is very low, possibly due to its low pKa, its bulkiness and/or polarity, making it very efficient for maintaining the ammonium ion gradient for loading of the therapeutic agents.

Molecule COc1cccc2c1C(=O)c1c(O)c3c(c(O)c1C2=O)C[C@@](O)(C(=O)CO)C[C@@H]3O[C@H]1C[C@H](N)[C@H](O)[C@H](C)O1 [free doxorubicin, doxorubicin] has an IC50 (M109-R [1]) of 2000 nM, an IC50 (M109-S) of 560 nM and an IC50 (C26) of 960 nM. The IC50 (KB-V [2]) was 690 nM, the IC50 (KB [3]) was 40 nM and the “Doxorubicin Uptake” value (KB-V [4]; 1 hr exposure) was 311 (22) ng DOX/10^6 cells. The “Doxorubicin Uptake” value (KB-V [4]; 5 hr exposure) was 931 (21) ng DOX/10^6 cells, the “Doxorubicin Uptake” value (KB [5]; 1 hr exposure) was 426 (33) ng DOX/10^6 cells and the “Doxorubicin Uptake” value (KB [5]; 5 hr exposure) was 937 (46) ng DOX/10^6 cells. For the same molecule, the “Doxorubicin Uptake” value (KB [5]; 24 hr exposure) was 840 (15) ng DOX/10^6 cells, the “Doxorubicin Uptake” value (M109-R [6]) was 80 (3) ng DOX/10^6 cells and the “increase in mean survival time over control” value (C-26 cells) was 4 days. The mean survival time (C-26 cells) was 17 days, the “solubility in 250 mM ammonium glucuronate relative to 250 mM ammonium sulfate” value ([7]; 250 mM AG solution vs 250 mM AS solution) was “approximately 100 fold” and the “concentration at which doxorubicin precipitates” value ([7]; in the presence of sulfate ions) was “less than 2 mM”.
